Reference: patent publication US20180353445A1, “METHODS AND COMPOSITIONS RELATING TO PROTEASOME INHIBITOR RESISTANCE” (Whitehead Institute for Biomedical Research, priority 2017, published 2018)
Entries after “also recorded” stand apart in the source; their conditions may differ.

Columns and labels:
[1] = tested on: IMR32 (reduced PSMD5) and Kelly neuroblastoma cells; test: Viability of IMR32 versus Kelly neuroblastoma cells (CellTiter-Glo); format: cell-based, human; conditions: other experiments, e.g., 0.1 uM
[2] = tested on: T47D cells with doxycycline inducible PSMD2 KD (Lo19S) versus control cells; test: Lo19S T47D drug screen (PSMD2 KD versus control cells, CellTiter-Glo); format: cell-based, human; conditions: T47D, Lo19S state by dox-inducible PSMD2 shRNA; compound library screen; 72 h; CellTiter-Glo
Method: The effect of each drug on viability of cells was calculated by averaging the duplicate experiments. The data is plotted in FIG. 16 as the log2 of the ratio of viability of PSMD2 KD versus control cells (log2 (shPSMD2/Control)). […] The Selleck natural product library (NPC) comprising 502 compounds in 5 doses and the. NIH bioactive compound library that includes 731 compounds in 4 doses were also screened using the same system.
A deeper understanding of the proteasome inhibitor resistant state could yield insights into the molecular mechanisms activated by cells to cope with proteotoxic stress and elucidate new therapeutic strategies for cancer. With these goals in mind, we screened mechanistically diverse small molecule libraries to identify compound sensitivities altered by the Lo19S and Hi-OXPHOS states. An initial screen was conducted in the isogenic T47D model with transient induction of the Lo19S state as described above, We evaluated >4300 mechanistically well-defined compounds within 4 libraries. The compounds included approved cancer drugs (Selleck anti-cancer library: CDL), common natural products (Natural product library: NPC) and an ^-NIH bioactives library (NIH). Each of these compounds was tested at ≥4 concentrations. (Table S5, data not shown), An additional 2866 compounds from the Boston University's Chemical Methodology and Library Development (CMLD-BU) small molecule collection was screened at a single dose (BULL, see Table S5).
Generation of the Lo19S T47D cell line—For the generation of the T47D Tet-inducible PSMD2 knockdown cell line—the TRIPZ vector with an inducible shRNA targeting PSMD2 was purchased from Dharmacon (clone V3THS_403760). It was introduced to the T47D cells according to manufactures protocol and cells were selected with puromycin […] for one week. The cells were exposed to doxycycline for 24 hours and cells were FACS sorted for the top 10% of most RFP expressing cells (highest expression of shRNA). The cells were further cultured in the absence of doxycycline and PSMD2 knockdown was induced as specified in the text.
After 48 hours the cells were collected counted and plated (in the absence of dox) at 1000 cells/well in 384-well opaque, white assay plates (Coming, NY), 50 uL per well, and incubated overnight at 37° C./5% CO2. Compound stocks from the Cancer drug library containing 349 bioactive compounds that were arrayed in dose 10 nM, 100 nM, 1 uM, 10 uM (Selleck anti-cancer compound library L3000), the natural products library containing 502 compounds that were utilized in 5 doses (dilution of 1:1000 of 2ug/ml, 0.2 ug/ml, 0.002/ug/ml, 0.0002 ug/ml), the NIH bioactive library including 731 drugs in dose of 10 nM, 100 nM, 1 uM, 10 uM and the Boston University's CMLD (Chemical Methodology and Library Development) compound deck containing 2866 compounds in one dose (10 uM), including novel chemotypes that uniquely probe three-dimensional space by employing stereochemical and positional variation within the molecular framework as diversity elements in library design. 50 nl of compounds were pin-transferred (V&P Scientific, CA, pin tool mounted onto Tecan Freedom Evo 150 MCA96 head, Tecan, Calif.) into duplicate assay plates and incubated for 72 h. The DMSO content was 0.1% within each well, Per plate, there are 32 wells of DMSO vehicle control and 32 wells of positive control compounds. After three days of incubation, 10 uL of CellTiter-Glo (Promega, Wis.) was added to each well, incubated for 10 minutes and the luminescence output was read on the M1000 Infinite Pro plate reader (Tecan, Calif.).

T47D cells [3] = test: The glucose/galactose drug screen; format: cell-based, human; conditions: for relative viability change of cells grown in glucose versus galactose: 10 mM Glucose or Galactose, Selleck anti cancer and natural product libraries
Method: We conducted a second set of drug screens to identify unique sensitivities conferred by the Hi-OXPHOS state using parental T47D breast cancer cells (without 19S subunit suppression). For this screen, we used the NPC and CDL libraries as they contained the greatest number of hits in the Lo19S screen. We tested over 800 compounds at multiple concentrations and measured their effects on relative cell growth/viability when cells were grown under aerobic glycolysis conditions (glucose-supplemented medium) or forced mitochondrial respiration conditions (galactose-supplemented medium).
The glucose/galactose drug screen—T47D cells growing in regular media were collected counted and after centrifugation cells were re-suspended in RPM1 media without glucose containing 10% dialyzed serum with the addition of either 10 mM glucose or 10 mM galactose, Cells were then plated at 1000 cells/well in 384-well opaque, white assay plates (Coming, N.Y.), 50 uL per well, and incubated overnight at 37°C./5% CO2. Application of the drug libraries and cell viability was executed as described above for the Lo19S drug screen.

[4] = tested on: IMR32 (reduced PSMD5) and Kelly neuroblastoma cells; test: Viability of IMR32 versus Kelly neuroblastoma cells (CellTiter-Glo); format: cell-based, human; conditions: 72 hours after addition; CellTiter-Glo
Method: To determine whether these compounds also differentially affect cells with reduced expression of PSDMS, IMR32 and Kelly cells were each cultured in the presence of ABT-263, disulfiram, or elesclomol across a range of concentrations. Cell viability was measured by CellTiter-Glo® Luminescent Cell Viability Assay 72 hours after addition of the compound to cells. The fold viability relative to culture in the absence of the compound was determined for each cell line. […] In the experiment shown in FIG. 24, the lowest lower concentration of ABT-263 and disulfiram tested was 1 uM.
ABT-263 targets several members of the BCL2 family, including BCL2 and BCL-XL.

T47D cells [5] = test: Drug library screen (Selleck anti-cancer, NPC, NIH bioactive), PSMD2 KD vs control T47D cells; format: cell-based, human
Method: Schematic representation of the drug screen setup. (FIG. 37A) 147D cells harboring a doxycycline-inducible PSMD2 shRNA were grown in the presence or absence of doxycycline for 48 hr. Cells were then collected, washed, and plated in the absence of doxycycline for 24 hr prior to exposure different compounds. Relative cell numbers were measured 3 days later.
The relative viability of the Lo19S versus control cells was calculated for replica experiments and the log2 of the ratio is plotted. […] The relative viability of the respiring cells (Hi-OXPHOS) (gal) versus the control cells (glu) was calculated for replica experiments and the log2 of the ratio is plotted.
After 48 hours the cells were collected, counted, and plated at 1000 cells/well in 384 well plates in duplicates for each cell line. Compounds from the Selleck Chemicals anti-cancer compound library (349 drugs in 4 concentrations; […]) were pinned the next day and viability was measured after 72 hours by the reduction of Resazurin (Ex=530 run, Em=590nin). (See FIG. 37A for schematic of screen.)

MCF7 and HEK293 cells = test: Cell viability with glucose or galactose as the carbon source; format: cell-based, human; conditions: 10 mM glucose or 10 mM galactose
Method: Cells were treated with increasing concentrations of elesclomol in the presence of either Glucose or Galactose as the carbon source (FIG. 40A). The presence of Galactose will induce a mitochondrial dependent metabolism (FIGS. 40B-40C, Gohil et al., Nature Biotechnology 28, 249-255 (2010)).
The sensitivity of cells to different chemical isoforms of elesclomol was also assessed. […] Removing even one substantially impairs the ability of the molecule to induce toxicity (FIG. 41B).
Cell culture methods—147D, Lo19S T47D, K562 and 293T-HS cells were cultured in RPMI-1640 medium supplemented with 10% fetal bovine serum; HEK293, HEK293T and MCF-7 cells were cultured in Dulbecco's modified Eagle's medium supplemented with 10% fetal bovine serum. For the glucose, galactose experiments media lacking glucose was supplemented with dialyzed serum and either 10 mM Glucose or 10 mM galactose.
(§1) Cell viability—where indicated relative cell number following different drug treatment was conducted by plating cells at 1000 cells/well in 384 well plates. Indicated concentrations of compounds were added 24 hour after plating at least in triplicate for each condition. Viability was measured 72 hours after drug addition using cell titer-glo (Promega) according to manufactures protocol. […]

cancer cells = test: Cell viability, elesclomol and elesclomol analogs (cell titer-glo); format: cell-based; conditions: substitution of oxygen for sulfur group(s)
Excerpt: In addition to the intrinsic sensitivity of certain cancer cells to elesclomol, as our drug screen indicated, the sensitivity of cancer cells to elesclomol can be further enhanced by forcing them into a Hi-OXPHOS state.
We examined several elesclomol analogs (FIG. 57B) to determine the structural features that are important for mediating its cytotoxicity. […] Substitution of oxygen for even one of the sulfur groups (compound-5) reduced the activity of elesclomol by 300 fold. The loss of activity was even more pronounced (>>300 fold) when both sulfurs were substituted (compound-6) (FIGS. 51C-51D, FIG. 57C). Various other modifications to the elesclomol scaffold were tolerated, as long as the core sulfur geometry remained intact.
as §1

Compound | toxicity at lower concentrations than 1 uM [1] | viability of PSMD2 KD versus control cells (log2 (shPSMD2/Control)) [2] | relative viability change of cells grown in glucose versus galactose (T47D cells [3]) | number of concentrations at which respiring cells were preferentially targeted (T47D cells [3]; galactose versus glucose) [concentrations] | sensitivity of IMR32 cells relative to Kelly cells (fold viability) [4] | sensitivity of proteasome inhibitor resistant cancer cells vs sensitive counterpart cells (T47D cells [5]) | growth inhibition of T47D cells with reduced level of PSMD2 vs control T47D cells (T47D cells [5]; Selleck anti-cancer compound library screen) | sensitivity of cells in galactose (mitochondrial metabolism, Hi-OXPHOS) versus glucose (glycolytic) (MCF7 and HEK293 cells) | reduction of activity relative to elesclomol (cancer cells) [fold]
CCN(CC)C(=S)SSC(=S)N(CC)CC [disulfiram, tetraethylthiuram disulfide] | a similar level of toxicity was observed | selectively reduce the viability of PSMD2 KD cells versus control cells; also recorded: selectively sensitized cells; also recorded: highly effective in slowing the growth of cells in the Lo19S state | cells that respire are predominantly sensitive; also recorded: preferentially targeted respiring cells; also recorded: more potent in cells in the Hi-OXPHOS state | 4 | dramatically more sensitive | highly sensitive | selectively inhibit growth |  | 
antimycin A |  |  | increased sensitivity |  |  |  |  | This phenomenon is observed | 
CN(NC(=O)CC(=O)NN(C)C(=S)c1ccccc1)C(=O)c1ccccc1 [compound-5] |  |  |  |  |  |  |  |  | 300
